Measurements published in patent publication US8765676B2, “Calcium sensing receptor modulating compounds and pharmaceutical use thereof” (Leo Pharma A/S, priority 2009, dated 2014).

Columns and labels:
human CaSR = target: T1, human CaSR (Homo sapiens, UniProt P41180); assay: Functional whole cell assay (modulation of human CaSR), IP1 accumulation in CHO-K1 cells; type: cell-based; settings: human CaSR stably expressed on CHO-K1 cells, 2 mM Ca2+, IP-One htrf
T1 sequence (P41180 20-1078): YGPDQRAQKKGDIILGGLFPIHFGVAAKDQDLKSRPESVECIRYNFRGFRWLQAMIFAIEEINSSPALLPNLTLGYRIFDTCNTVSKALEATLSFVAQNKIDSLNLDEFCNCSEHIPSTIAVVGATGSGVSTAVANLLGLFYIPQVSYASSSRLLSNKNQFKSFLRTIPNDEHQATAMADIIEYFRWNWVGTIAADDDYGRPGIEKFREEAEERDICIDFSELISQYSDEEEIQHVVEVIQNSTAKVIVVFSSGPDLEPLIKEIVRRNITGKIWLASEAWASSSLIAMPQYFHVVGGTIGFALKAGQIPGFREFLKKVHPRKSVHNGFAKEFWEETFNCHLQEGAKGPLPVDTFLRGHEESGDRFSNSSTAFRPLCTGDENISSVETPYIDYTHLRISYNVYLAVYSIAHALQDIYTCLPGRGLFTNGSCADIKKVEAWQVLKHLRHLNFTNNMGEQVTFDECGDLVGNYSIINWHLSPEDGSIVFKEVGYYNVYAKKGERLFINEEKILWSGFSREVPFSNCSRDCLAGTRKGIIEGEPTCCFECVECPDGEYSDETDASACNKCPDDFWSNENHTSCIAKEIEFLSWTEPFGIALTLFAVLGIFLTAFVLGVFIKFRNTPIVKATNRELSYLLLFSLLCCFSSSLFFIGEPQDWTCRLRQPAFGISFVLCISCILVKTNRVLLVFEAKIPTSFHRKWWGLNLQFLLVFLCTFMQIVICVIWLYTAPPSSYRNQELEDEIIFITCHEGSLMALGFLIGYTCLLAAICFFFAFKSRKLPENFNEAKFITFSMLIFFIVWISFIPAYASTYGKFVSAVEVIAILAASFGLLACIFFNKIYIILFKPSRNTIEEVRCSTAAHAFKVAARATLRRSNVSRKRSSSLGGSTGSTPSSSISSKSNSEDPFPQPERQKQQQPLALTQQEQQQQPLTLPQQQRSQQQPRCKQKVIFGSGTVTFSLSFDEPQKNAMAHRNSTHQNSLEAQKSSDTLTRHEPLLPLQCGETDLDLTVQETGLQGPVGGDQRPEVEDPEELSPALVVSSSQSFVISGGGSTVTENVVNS
From the text: The assay investigates a compound's functional ability to act as a biological positive modulator on the human CaSR. Activation of the receptor expressed on CHO-K1 cells is detected through the G alpha q pathway, the activation of phospholipase C and the accumulation of intracellular inositol phosphate (IP) as described earlier [Sandrine Ferry, Bruno Chatel, Robert H. Dodd, Christine Lair, Danielle Gully, Jean-Pierre, Maffrand, and Martial Ruat. Effects of Divalent Cations and of a Calcimimetic on Adrenocorticotropic Hormone Release in Pituitary Tumor Cells. BIOCHEMICAL AND BIOPHYSICAL RESEARCH COMMUNICATIONS 238, 866-873 (1997)]. The human CaSR is stably expressed on a CHO-K1 cell clone, stimulated with a basal level of calcium and challenged with the tested compound. The level of IP1 is determined using the IP-One htrf kit (Cisbio, France). CHO-K1 cells not transfected with the CaSR fail to elicit an IP1 response upon calcium and/or compound stimulation.
The ORF coding for the human CaSR (genebank: NM_000388) was acquired from Invitrogen Corp, USA and subsequently cloned into the mammalian expression vector pCDA3.1.
CHO-K1 cells were transfected using Lipofectamine according to manufacturer's protocol (400.000 cells/well were seeded in a 6-well plate and transfected after 24 hours using 2 μg DNA and 5 μl lipofectamine). After another 24 hours the cells were detached, seeded and subjected to 1 mg/ml of G-418. Following 7 days growth single clones were picked, the CaSR expression evaluated using the 5C10 antibody against CaSR, the clones with the highest expression were selected and tested for functional response. The preferred clone was continuously cultured according to standard procedures described in ATCC (American Type Culture Collection) protocols for CHO-K1 with the addition of 500 μg/ml G-418.
On the assay day cells were harvested and resuspended to 13*10^6 cells/ml in stimulation buffer (containing: Hepes 10 mM, MgCl2 0.5 mM, KCl 4.2 mM, NaCl 146 mM, glucose 5.5 mM, LiCl 50 mM at pH 7.4). Five μl cell solution were pipetted into a well (white 384-well plate, Perkin Elmer Optiplate) followed by 5 μl compound diluted in a Ca^2+-containing (to the final concentration of 2 mM) buffer. After compound stimulation for 1 hour at 37° C. 10 ul of IP-One assay reagents were added and incubated for another 1 hour at room temperature. Finally the plate was read using a Perkin Elmer EnVision, according to protocol supplied by the IP-One assay kit manufacturer. The FRET ratio was calculated by dividing the 665 nm emission signal with that of the 615 nm.

[1] = Clearance in human liver microsomes; type: in vitro ADME; settings: 0.5 μM compound, 0.5 mg/mL microsomes, 1 mM NADPH
Method: Test compound concentration is 0.5 μM, microsome concentration is 0.5 mg/mL and NADPH concentration is 1 mM in the incubation. The described method is performed by the liquid handling system Tecan RSP and is based on a 96-well format.
Control incubations with test compound without NADPH and test compound without microsomes are conducted to investigate non-CYP mediated metabolism and stability in phosphate buffer at 37° C., respectively.
The human liver microsomal suspension in phosphate buffer is mixed with NADPH. The mixture is pre-heated (7 min) to 37° C. Test compound is added, and the mixture is incubated for 30 minutes. Incubations are run in duplicate. Samples are withdrawn at predetermined stop times and mixed with methanol containing internal standard (IS) to terminate all enzyme activity and precipitate proteins. A control without NADPH (to detect problems such as nonspecific protein binding, heat instability or non-CYP mediated metabolism) and a control without microsomes (for assessing compound stability in the absence of any active enzymes) are tested.
The percentage of organic solvent in the incubations is less than 1%. Careful inspections of reagents are performed prior to the start of any experiment to ensure all reagents are in solution.
The 96-well plates are centrifuged. Test compound depletion, using a compound specific LC/MS/MS method, is determined.
The logarithm of the peak area ratios of test compound to internal standard (IS) versus incubation time is plotted in a graph.
The rate constant (k) (min^−1) of test compound depletion is calculated from the linear part of the curve and the half-time (t1/2) in minutes can be calculated from the rate constant (Eq. 1). t1/2=(ln 2)/k (Eq. 1)
Intrinsic clearance (Clint) (mL/min/mg protein) is calculated from: Clint=k/c (Eq. 2) where c is the microsomal protein concentration in mg/mL.
Conversion to apparent clearance (Clapp) (mL/min/kg) is done by Eq. 3: Clapp=Clint×a×b/d (Eq. 3) where a, b and d are the scaling factors for normalizing Clint to human body weight.
The following human scaling factors are used:
a: 45 (microsomal protein/liver weight (mg/g))
b: 1500 (liver weight (g))
Apparent clearance below approximately 10 mL/min/kg human body weight (corresponding to extraction ratio of approx. 30%) is considered as low clearance (high metabolic stability). Apparent intrinsic clearance above approximately 60 mL/min/kg human body weight (corresponding to extraction ratio of approx. 75%) is considered as high clearance (low metabolic stability).

[2] = Pharmacokinetic profile following intravenous administration in rats; type: in vivo; settings: serum, rat, 0.5 mg/kg
Method: A rat is dosed intravenously with a solution of test compound (0.5 mg/kg) in DMSO/EtOH/H2O/propylene glycol [0.2:0.8:5:4] and blood samples are taken from the sublingual venous plexus after 2 min, 10 min, 30 min, 1 h, 2 h, 4 h and 6 h.
Blood samples are taken in BD Vacutainer SST serum separation tubes, serum is isolated by centrifugation, transferred to micronics tubes and analyzed. Samples are kept at −18° C. pending analysis.
Mass spectrometer (API5000 series) parameters are optimised to analyse for the specific compounds and test injections are performed to confirm the validity of the established generic chromatography method. The generic method is based on fast gradient (2.5 min) analysis on C18 column with mobile phases consisting methanol, ammonium acetate, formic acid and water.
Standards are prepared in rat serum to cover the analytical range 0.1 to 300 ng/ml. Standards, blank serum and study samples are applied to 96 deepwell plate and proteins are precipitated by addition of acetonitrile containing internal standard. Samples are analysed on LC-MS/MS usually over night.
As standard, the 2 and 10 min samples are diluted 10 times with rat serum prior to analysis. Other samples may need similar dilution to keep quantification below 300 ng/ml.
Quantification is performed based on the ratio between analyte and internal standard. The curve should preferably fit a linear curve using a 1/x weighting factor. At least a factor of two is needed to distinguish between blank serum and lowest standard. If this is not the case the quantification of the specific experiment may be raised.
Calculation of T½ requires at least three datapoints describing a true elimination phase. If such three points are not available AUC (0-inf) can not be estimated. In these cases […](0-6 h) is calculated instead.
Total clearance of drug from serum (Cl_iv) is calculated from: Cl—iv=Dose/AUC
Terminal volume of distribution (Vd) is defined as the volume in which the amount of drug would need to be uniformly distributed to produce the observed serum concentration and is calculated from: Vd=T½×Cl—iv/(ln 2)

SMILES | EC50 (human CaSR) | Clearance (Clapp) in human liver microsomes [1] | Vd [2]
COc1cc([C@@H](C)NC2CC[C@H](c3ccc(S(C)(=O)=O)cc3)C2)ccc1F (stereo partly drawn) [Compound 1014, (1R)—(N)-[(1R/S,3S)-3-(4-methanesulfonylphenyl)cyclopentyl]-1-(4-fluoro-3-methoxyphenyl)ethanamine] | < 0.5 µM | A (A: <20 mL/min/kg) | –
COc1cc([C@@H](C)NC2CC[C@H](c3ccc(C(=O)NC4CCNCC4)cc3)C2)ccc1F (mixture of isomers) [Compound 1157, (1R)—(N)-[(3S)-3-[4-[piperidin-4-ylaminocarbonyl]phenyl]-cyclopentyl]-1-(4-fluoro-3-methoxyphenyl)ethanamine] | < 0.5 µM | A (A: <20 mL/min/kg) | 10 to 50 L/kg
COc1cc([C@@H](C)N[C@H]2CC[C@@H](c3ccc(C(=O)NCCO)cc3)C2)ccc1F [Compound 1176, 4-{(1R,3S)-3-[(1R)-1-(4-Fluoro-3-methoxy-phenyl)-ethylamino]-cyclopentyl}-N-(2-hydroxy-ethyl)-benzamide] | < 0.5 µM | A (A: <20 mL/min/kg) | –
COc1cc([C@@H](C)NC2CCC(c3ccc(CNS(C)(=O)=O)cc3)C2)ccc1F (mixture of isomers) [Compound 1181, N-[[4-[(1R/S,3R/S)-3-[[(1R)-1-(4-fluoro-3-methoxy-phenyl)ethyl]amino]cyclopentyl]-phenyl]methyl]methanesulfonamide] | < 0.5 µM | A (A: <20 mL/min/kg) | –
COc1cc([C@@H](C)N[C@H]2CC[C@@H](c3ccc(-c4nnn[nH]4)cc3)C2)ccc1F [Compound 1182, (1S,3R)—N-[(1R)-1-(4-fluoro-3-methoxy-phenyl)ethyl]-3-[4-(1H-tetrazol-5-yl)phenyl]cyclopentanamine] | < 0.5 µM | A (A: <20 mL/min/kg) | < 10 L/kg
COc1cc([C@@H](C)N[C@H]2CC[C@@H](c3ccc(S(=O)(=O)NCCO)cc3)C2)ccc1F [Compound 1187, 4-[(1R,3S)-3-[[(1R)-1-(4-fluoro-3-methoxy-phenyl)ethyl]amino]-cyclopentyl]-N-(2-hydroxyethyl)benzenesulfonamide] | < 0.5 µM | A (A: <20 mL/min/kg) | > 50 L/kg
COc1cc([C@@H](C)N[C@H]2CC[C@@H](c3ccc(C(=O)N4CCNC(=O)C4)cc3)C2)ccc1F [Compound 1179, 4-(4-{(1R,3S)-3-[(1R)-1-(4-Fluoro-3-methoxy-phenyl)-ethylamino]-cyclopentyl}-benzoyl)-piperazin-2-one] | < 0.5 µM | A (A: <20 mL/min/kg) | 10 to 50 L/kg
COc1cc([C@@H](C)N[C@H]2CC[C@@H](c3ccc(C(=O)NCCNS(C)(=O)=O)cc3)C2)ccc1F.Cl [Compound 1178, 4-{(1R,3S)-3-[(1R)-1-(4-Fluoro-3-methoxy-phenyl)-ethylamino]-cyclopentyl}-N-(2-methanesulfonylamino-ethyl)-benzamide hydrochloride] | < 0.5 µM | A (A: <20 mL/min/kg) | > 50 L/kg
